The values that follow come from US20170334899A1, “AMINO-SUBSTITUTED ISOTHIAZOLES” (Bayer Pharma Aktiengesellschaft, priority 2014, published 2017).

Bounds are passed on as bounds.

The assay relates to HeLa. The assay can be described thus: Proliferation assay (crystal violet), HeLa. To be noted: Homo sapiens, HeLa, 96 h, HeLa cells; 4 days incubation; crystal violet staining; read-out: IC50 inhibition of proliferation, HeLa. Type of assay: cell-based. Put shortly:
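Four-day compound exposure (0.001-10 μM, 0.5% DMSO final) began 24 h after seeding 1000-5000 cells/well in medium with 10% fetal calf serum. Cell number read by crystal violet absorbance at 595 nm, scaled between day-zero plate and untreated control; 4-parameter fit gave IC50.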
Turning to `Cc1nsc(Nc2cncc(C(F)(F)F)n2)c1C(=O)Nc1ccc(OC2CCN(CC(F)F)CC2)c(F)c1` [Example 224, N-(4-{[1-(2,2-difluoroethyl)piperidin-4-yl]oxy}-3-fluorophenyl)-3-methyl-5-{[6-(trifluoromethyl)pyrazin-2-yl]amino}-1,2-thiazole-4-carboxamide], the IC50 is 0.32 µM. The same measure for `Cc1nsc(Nc2cncc(C(F)(F)F)n2)c1C(=O)Nc1ccc(C(=O)NC2CCN(CC(F)F)CC2)cc1` [Example 225, N-N-(4-{[1-(2,2-difluoroethyl)piperidin-4-yl]carbamoyl}phenyl)-3-methyl-5-{[6-(trifluoromethyl)pyrazin-2-yl]amino}-1,2-thiazole-4-carboxamide]: 8.3 µM. The same measure for `Cc1nsc(Nc2cncc(C(F)(F)F)n2)c1C(=O)Nc1ccc(OCC2CCN(C(=O)OC(C)(C)C)CC2)nc1` [Example 226, tert-butyl 4-{[(5-{[(3-methyl-5-{[6-(trifluoromethyl)pyrazin-2-yl]amino}-1,2-thiazol-4-yl)carbonyl]amino}pyridin-2-yl)oxy]methyl}piperidine-1-carboxylate]: 0.91 µM. The value for `Cc1nsc(Nc2cnc(C(F)(F)F)cn2)c1C(=O)Nc1ccc(OCC2CCN(C(=O)OC(C)(C)C)CC2)nc1` [Example 227, tert-butyl 4-{[(5-{[(3-methyl-5-{[5-(trifluoromethyl)pyrazin-2-yl]amino}-1,2-thiazol-4-yl)carbonyl]amino}pyridin-2-yl)oxy]methyl}piperidine-1-carboxylate] was 2 µM; that for `Cc1nsc(Nc2cnc(C(F)(F)F)cn2)c1C(=O)Nc1ccc(OCC2CCCN(C(=O)OC(C)(C)C)C2)nc1` (centres unmarked) [Example 228, tert-butyl 3-{[(5-{[(3-methyl-5-{[5-(trifluoromethyl)pyrazin-2-yl]amino}-1,2-thiazol-4-yl)carbonyl]amino}pyridin-2-yl)oxy]methyl}piperidine-1-carboxylate] was 0.27 µM; that for `Cc1nsc(Nc2cnc(C(F)(F)F)cn2)c1C(=O)Nc1ccc(F)c(OC2CCN(C(=O)OC(C)(C)C)CC2)c1` [Example 229, tert-butyl 4-(2-fluoro-5-{[(3-methyl-5-{[5-(trifluoromethyl)pyrazin-2-yl]amino}-1,2-thiazol-4-yl)carbonyl]amino}phenoxy)piperidine-1-carboxylate] was 0.19 µM. With `Cc1nsc(Nc2cc(C#N)ccn2)c1C(=O)Nc1ccc(Oc2cccc(C(F)(F)F)c2)nc1` [Example 230, 5-[(4-cyanopyridin-2-yl)amino]-3-methyl-N-{6-[3-(trifluoromethyl)phenoxy]pyridin-3-yl}-1,2-thiazole-4-carboxamide], the IC50 amounted to 0.58 µM.

As to `Cc1nsc(Nc2cnc3ccccc3n2)c1C(=O)Nc1ccc(Oc2cccnc2)nc1` [Example 231, 3-methyl-N-[6-(pyridin-3-yloxy)pyridin-3-yl]-5-(quinoxalin-2-ylamino)-1,2-thiazole-4-carboxamide], the IC50 turned out to be 1.8 µM.

`Cc1nsc(Nc2cnc3ccccc3n2)c1C(=O)Nc1ccc(Oc2ccc(SC(F)(F)F)cc2)nc1` [Example 233, 3-methyl-5-(quinoxalin-2-ylamino)-N-(6-{4-[(trifluoromethyl)sulfanyl]phenoxy}pyridin-3-yl)-1,2-thiazole-4-carboxamide]: the IC50 is greater than 10 µM.

Consider `Cc1nsc(Nc2cnc3ccccc3n2)c1C(=O)Nc1ccc(NC2CCN(C(=O)OC(C)(C)C)CC2)nc1` [Example 234, tert-butyl 4-{[5-({[3-methyl-5-(quinoxalin-2-ylamino)-1,2-thiazol-4-yl]carbonyl}amino)pyridin-2-yl]amino}piperidine-1-carboxylate], for which the IC50 was determined as 9.6 µM. The value for `COc1ccc(NC(=O)c2c(C)nsc2Nc2cnc3ccccc3n2)c(CC#N)n1` [Example 235, N-[2-(cyanomethyl)-6-methoxypyridin-3-yl]-3-methyl-5-(quinoxalin-2-ylamino)-1,2-thiazole-4-carboxamide] was 2.1 µM.
